Measured values: patent US20100311741A1, “Bicyclosulfonyl Acid (BCSA) Compounds and Their Use as Therapeutic Agents” (INHIBOX LTD., priority 2007, published 2010)

target: T1, Human recombinant TACE enzyme (Homo sapiens, UniProt P78536); assay: TACE assay (fluorescent peptide substrate); type: biochemical; settings: 3.5 h; single concentration @2 (μM); read-out: Av. TACE Inhibition, % @2
T1 construct: purchased R and D Systems, Abingdon, UK 930-ADB
Description: The activity of the compounds as TACE inhibitors was determined using a commercially available peptide substrate (M-2255, Bachem UK Ltd, St. Helens, UK) and recombinant TACE enzyme (930-ADB, R and D Systems, Abingdon, UK). Human recombinant TACE enzyme (5 ng/30 μL) was incubated for 3.5 hour at 37° C. in assay buffer (25 mM Tris.HCl, 2.5 μM ZnCl2, 0.005% Brij 35, pH 8.0) with 5 μM substrate in the presence of test compound (TACE inhibitor). The extent of TACE activity was determined by measurement of the fluorescence (excitation 355 nm, emission 460 nm).
(§1) Percent activity (% activity) for each test compound was calculated as:
(§2) % activity={(S^C−B)/(S^o−B)}×100
(§3) wherein S^C denotes signal measured in the presence of enzyme and the compound being tested, S^o denotes signal measured in the presence of enzyme but in the absence of the compound being tested, and B denotes the background signal measured in the absence of both enzyme and compound being tested. The IC50 corresponds to the concentration which achieves 50% activity.

T1 sequence (P78536 215-671 limits assumed): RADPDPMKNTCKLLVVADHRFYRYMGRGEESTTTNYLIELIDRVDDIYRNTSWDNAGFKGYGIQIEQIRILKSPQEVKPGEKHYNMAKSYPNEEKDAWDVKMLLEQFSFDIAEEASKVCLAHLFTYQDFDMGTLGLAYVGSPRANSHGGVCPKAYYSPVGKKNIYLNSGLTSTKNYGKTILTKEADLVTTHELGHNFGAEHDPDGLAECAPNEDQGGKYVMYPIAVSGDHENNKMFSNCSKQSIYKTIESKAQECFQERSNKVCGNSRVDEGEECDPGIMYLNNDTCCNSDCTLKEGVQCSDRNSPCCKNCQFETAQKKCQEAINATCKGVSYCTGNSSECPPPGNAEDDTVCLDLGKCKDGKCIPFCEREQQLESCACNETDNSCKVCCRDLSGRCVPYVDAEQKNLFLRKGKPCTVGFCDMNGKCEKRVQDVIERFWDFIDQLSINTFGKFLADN

SMILES	inhibition at 2 µM [%]
O=C(CC1c2ccccc2S(=O)(=O)N1C1CCN(Cc2ccccc2)CC1)NO (stereo not shown) [IX-044]	0
COc1cc(OC)c2c(c1)C(CC(=O)NO)N(c1ccccc1)S2(=O)=O (stereo not shown) [IX-072]	15
O=C(CC1c2ccc(Br)cc2S(=O)(=O)N1c1ccccc1)NO (stereo not shown) [IX-074]	10
O=C(CC1c2cccc(C(F)(F)F)c2S(=O)(=O)N1c1ccccc1)NO (stereo not shown) [IX-084]	0
O=C(CC1c2c(Cl)cc(Cl)cc2S(=O)(=O)N1c1ccccc1)NO (stereo not shown) [IX-089]	0
COc1cccc2c1S(=O)(=O)N(c1ccccc1)C2CC(=O)NO (stereo not shown) [IX-091]	13
COc1ccc2c(c1Cl)C(CC(=O)NO)N(c1ccccc1)S2(=O)=O (stereo not shown) [IX-093]	29

Other lines, results leading:

inhibition at 2 µM [%]	SMILES
10	COc1cc2c(c(OC)c1OC)S(=O)(=O)N(c1ccccc1)C2CC(=O)NO (stereo not shown) [IX-071]
32	Cc1ccc2c(c1)S(=O)(=O)N(c1ccccc1)C2CC(=O)NO (stereo not shown) [IX-073]
4	O=C(CC1c2ccc(-c3ccccc3)cc2S(=O)(=O)N1c1ccccc1)NO (stereo not shown) [IX-079]
35	COc1cccc2c1C(CC(=O)NO)N(c1ccccc1)S2(=O)=O (stereo not shown) [IX-082]
57	Cc1cc(F)c2c(c1)C(CC(=O)NO)N(c1ccccc1)S2(=O)=O (stereo not shown) [IX-085]
20	O=C(CC1c2c(ccc(F)c2Cl)S(=O)(=O)N1c1ccccc1)NO (stereo not shown) [IX-086]
34	O=C(CC1c2cccc(Cl)c2S(=O)(=O)N1c1ccccc1)NO (stereo not shown) [IX-088]
10	O=C(CC1c2ccc(C(F)(F)F)cc2S(=O)(=O)N1c1ccccc1)NO (stereo not shown) [IX-090]
23	COc1cc(Cl)cc2c1S(=O)(=O)N(c1ccccc1)C2CC(=O)NO (stereo not shown) [IX-092]

same assay, conditions: 3.5 h; single concentration @100 (μM); read-out: Av. TACE Inhibition, % @100

SMILES	inhibition at 100 µM [%]
COc1ccccc1N1C(CC(=O)NO)c2ccccc2S1(=O)=O (stereo not shown) [IX-008]	50
COc1cccc(N2C(CC(=O)NO)c3ccccc3S2(=O)=O)c1 (stereo not shown) [IX-009]	52
O=C(CC1c2ccccc2S(=O)(=O)N1c1cccc(Oc2ccccc2)c1)NO (stereo not shown) [IX-011]	86
O=C(CC1c2ccccc2S(=O)(=O)N1c1cccc(C(F)(F)F)c1)NO (stereo not shown) [IX-014]	81
O=C(CC1c2ccccc2S(=O)(=O)N1c1cccc(OC(F)(F)F)c1)NO (stereo not shown) [IX-015]	54
O=C(CC1c2ccccc2S(=O)(=O)N1c1cccc(-c2ccccc2)c1)NO (stereo not shown) [IX-017]	97
CC(C)c1ccc(N2C(CC(=O)NO)c3ccccc3S2(=O)=O)cc1 (stereo not shown) [IX-024]	50
O=C(CC1c2ccccc2S(=O)(=O)N1c1ccc(-n2cncn2)cc1)NO (stereo not shown) [IX-030]	54
O=C(CC1NS(=O)(=O)c2ccccc21)NO (stereo not shown) [IX-039]	28
CN(C)CCOc1ccc(N2C(CC(=O)NO)c3ccccc3S2(=O)=O)cc1 (stereo not shown) [IX-051]	81
O=C(CC1c2ccccc2S(=O)(=O)N1c1cccc(CO)c1)NO (stereo not shown) [IX-075]	64
O=C(CCC1c2ccccc2S(=O)(=O)N1c1ccccc1)NO (stereo not shown) [IX-094]	26
O=C(O)CC1c2ccccc2S(=O)(=O)N1c1ccccc1 (stereo not shown) [IX-099]	9

Other lines, results leading:

inhibition at 100 µM [%]	SMILES
93	CSc1cccc(N2C(CC(=O)NO)c3ccccc3S2(=O)=O)c1 (stereo not shown) [IX-013]
55	O=C(CC1c2ccccc2S(=O)(=O)N1c1ccc(C(F)(F)F)cc1)NO (stereo not shown) [IX-019]
70	O=C(CC1c2ccccc2S(=O)(=O)N1c1ccc(-c2cnco2)cc1)NO (stereo not shown) [IX-031]
36	O=C(CC1c2ccccc2S(=O)(=O)N1c1ccc(N2CCOCC2)cc1)NO (stereo not shown) [IX-034]
28	CN1C(CC(=O)NO)c2ccccc2S1(=O)=O (stereo not shown) [IX-040]
53	O=C(CC1c2ccccc2S(=O)(=O)N1c1ccc(OCCN2CCOCC2)cc1)NO (stereo not shown) [IX-052]
38	O=C(NO)C1c2ccccc2S(=O)(=O)N1c1ccccc1 (stereo not shown) [IX-095]
27	O=C(NO)C1c2c(Cl)cccc2S(=O)(=O)N1c1ccccc1 (stereo not shown) [IX-096]
50	CC#CCOc1ccc(N2C(CC(=O)O)c3ccccc3S2(=O)=O)cc1 (stereo not shown) [IX-100]

system: not given; assay: not given; settings: not given

SMILES	melting point
Cc1cc(COc2ccc(N3C(CC(=O)NO)c4ccccc4S3(=O)=O)cc2)c2cc(F)ccc2n1 (stereo not shown) [Compound (5.58), 2-{2-[4-(6-Fluoro-2-methyl-quinolin-4-ylmethoxy)-phenyl]-1,1-dioxo-2,3-dihydro-1H-benzo[d]isothiazol-3-yl}-N-hydroxyacetamide]	> 140 °C (dec.)
Cc1cc(COc2ccc(N3C(CC(=O)NO)c4ccccc4S3(=O)=O)cc2)c2cc(Cl)ccc2n1 (stereo not shown) [Compound (5.59), 2-{2-[4-(6-Chloro-2-methylquinolin-4-ylmethoxy)-phenyl]-1,1-dioxo-2,3-dihydro-1H-benzo[d]isothiazol-3-yl}-N-hydroxyacetamide]	> 215 °C (dec.)
Cc1cc(COc2ccc(N3C(CC(=O)NO)c4ccccc4S3(=O)=O)cc2)ccn1 (stereo not shown) [Compound (5.60), 2-{2-[4-(2-Methyl-pyridin-4-ylmethoxy)-phenyl]-1,1-dioxo-2,3-dihydro-1H-benzo[d]isothiazol-3-yl}-N-hydroxyacetamide]	> 204 °C (dec.)
COc1ccc2c(c1)C(CC(=O)NO)N(c1ccccc1)S2(=O)=O (stereo not shown) [Compound (5.62), 2-(5-Methoxy-1,1-dioxo-2-phenyl-2,3-dihydro-1H-benzo[d]isothiazol-3-yl)-N-hydroxyacetamide]	180 to 182 °C
O=C(CC1c2cc3c(cc2S(=O)(=O)N1c1ccccc1)OCCO3)NO (stereo not shown) [Compound (5.63), 2-(1,1-Dioxo-2-phenyl-2,3,6,7-tetrahydro-1H-5,8-dioxa-thia-2-aza-cyclopenta[b]naphthalen-3-yl)-N-hydroxyacetamide]	202 to 204 °C (dec.)
O=C(O)CC1c2ccccc2S(=O)(=O)N1c1ccccc1 (stereo not shown) [IX-099]	178 to 179 °C (dec.)

Now from value to compound:

melting point	SMILES
218 to 220 °C (dec.)	O=C(CC1c2ccccc2S(=O)(=O)N1c1ccc(OCc2ccnc3ccccc23)cc1)NO (stereo not shown) [Compound (5.57), 2-{1,1-Dioxo-2-[4-(quinolin-4-ylmethoxy)phenyl]-2,3-dihydro-1H-benzo[d]isothiazol-3-yl}-N-hydroxyacetamide]
> 210 °C (dec.)	Cc1cc(COc2ccc(N3C(CC(=O)NO)c4ccccc4S3(=O)=O)cc2)cc(C)n1 (stereo not shown) [Compound (5.61), 2-{2-[4-(2,6-Dimethyl-pyridin-4-ylmethoxy)phenyl]-1,1-dioxo-2,3-dihydro-1H-benzo[d]isothiazol-3-yl}-N-hydroxyacetamide]
197 to 199 °C (dec.)	COc1cc2c(cc1OC)S(=O)(=O)N(c1ccccc1)C2CC(=O)NO (stereo not shown) [Compound (5.64), 2-(5,6-Dimethoxy-1,1-dioxo-2-phenyl-2,3-dihydro-1H-benzo[d]isothiazol-3-yl)-N-hydroxyacetamide]
182 to 183 °C	O=C(CC1c2ccc(Br)cc2S(=O)(=O)N1c1ccccc1)NO (stereo not shown) [Compound (5.68), 2-(6-Bromo-1,1-dioxo-2-phenyl-2,3-dihydro-1H-benzo[d]isothiazol-3-yl)-N-hydroxyacetamide]
160 to 161 °C	CC#CCOc1ccc(N2C(CC(=O)O)c3ccccc3S2(=O)=O)cc1 (stereo not shown) [IX-100]

system: HDAC (HeLa cell extract); assay: Selectivity assay: HDAC activity, fluorescent assay (Fluor de Lys); type: biochemical; settings: 15 μM acetylated substrate, 1 hour at 37° C., read-out: Av. HDAC Inhibition EC50
Description: Alternatively, the activity of the compounds as HDAC inhibitors was determined using a commercially available fluorescent assay kit (Fluor de Lys™, BioMol Research Labs, Inc., Plymouth Meeting, USA). HeLa extract was incubated for 1 hour at 37° C. in assay buffer (25 mM HEPES, 137 mM NaCl, 2.7 mM KCl, 1 mM MgCl2, pH 8.0) with 15 μM acetylated substrate in the presence of test compound (HDAC inhibitor). The extent of deacetylation was determined by the addition of 50 μL of a 1-in-500 dilution of Developer, and subsequent measurement of the fluorescence (excitation 355 nm, emission 460 nm), according to the instructions provided with the kit.
The HeLa cell extract was made from HeLa cells (ATCC Ref. No. CCL-2) by freeze-thawing three times in 60 mM Tris.HCl, pH 8.0, 450 mM NaCl, 30% glycerol. Two cell volumes of extraction buffer were used, and particulate material was centrifuged out (20,800 g, 4° C., 10 minutes). The supernatant extract having deacetylase activity was aliquoted and frozen for storage.
as §1, §2, §3

EC50 [µM]	SMILES
23.7	CCOc1ccc2c(c1)C(CC(=O)NO)N(c1ccccc1)S2(=O)=O (stereo not shown) [IX-078]

same assay, conditions: single concentration @100 (μM)

SMILES	Av. HDAC Inhibition, % @100 [%@100]
O=C(C[C@H]1c2ccccc2S(=O)(=O)N1c1ccccc1)NO [IX-002]	43
O=C(C[C@@H]1c2ccccc2S(=O)(=O)N1c1ccccc1)NO [IX-003]	44
O=C(CC1c2ccccc2S(=O)(=O)N1c1ccc2ccccc2c1)NO (stereo not shown) [IX-004]	32
COc1cccc(N2C(CC(=O)NO)c3ccccc3S2(=O)=O)c1 (stereo not shown) [IX-009]	24
COc1ccc(N2C(CC(=O)NO)c3ccccc3S2(=O)=O)cc1 (stereo not shown) [IX-010]	17
O=C(CC1c2ccccc2S(=O)(=O)N1c1ccc(Cl)cc1)NO (stereo not shown) [IX-012]	11
O=C(CC1c2ccccc2S(=O)(=O)N1c1ccc(OC(F)(F)F)cc1)NO (stereo not shown) [IX-020]	−2
CCCCOc1ccc(N2C(CC(=O)NO)c3ccccc3S2(=O)=O)cc1 (stereo not shown) [IX-036]	−4
COc1ccc2c(c1)C(CC(=O)NO)N(c1ccccc1)S2(=O)=O (stereo not shown) [IX-068]	44
O=C(CC1c2ccccc2S(=O)(=O)N1c1cccc(CO)c1)NO (stereo not shown) [IX-075]	2
O=C(C[C@@H]1c2ccccc2S(=O)(=O)[C@H]1c1ccccc1)NO [IX-097]	20
